Tests used:
[1] = molecular target: T1, C-RAF (Homo sapiens, UniProt P04049, Y340E/Y341E); assay: In vitro Raf activity determination (Alpha Screen, biotinylated kinase-dead MEK1 substrate), C-Raf; format: biochemical; settings: c-Raf approximately 4 nM; ATP 1 μM; pre-incubation 60 minutes; reaction 1 hour at room temperature
T1 construct: His tag (implied by nickel chromatography) (cleaved yes); StrepII tag (cleaved yes); made in house; host or cells: Sf9 insect cells (baculovirus), CRAF and h14-3-3 zeta co-expressed; MEK1 substrate from E. coli
T1 sequence (P04049 whole entry Y340E/Y341E): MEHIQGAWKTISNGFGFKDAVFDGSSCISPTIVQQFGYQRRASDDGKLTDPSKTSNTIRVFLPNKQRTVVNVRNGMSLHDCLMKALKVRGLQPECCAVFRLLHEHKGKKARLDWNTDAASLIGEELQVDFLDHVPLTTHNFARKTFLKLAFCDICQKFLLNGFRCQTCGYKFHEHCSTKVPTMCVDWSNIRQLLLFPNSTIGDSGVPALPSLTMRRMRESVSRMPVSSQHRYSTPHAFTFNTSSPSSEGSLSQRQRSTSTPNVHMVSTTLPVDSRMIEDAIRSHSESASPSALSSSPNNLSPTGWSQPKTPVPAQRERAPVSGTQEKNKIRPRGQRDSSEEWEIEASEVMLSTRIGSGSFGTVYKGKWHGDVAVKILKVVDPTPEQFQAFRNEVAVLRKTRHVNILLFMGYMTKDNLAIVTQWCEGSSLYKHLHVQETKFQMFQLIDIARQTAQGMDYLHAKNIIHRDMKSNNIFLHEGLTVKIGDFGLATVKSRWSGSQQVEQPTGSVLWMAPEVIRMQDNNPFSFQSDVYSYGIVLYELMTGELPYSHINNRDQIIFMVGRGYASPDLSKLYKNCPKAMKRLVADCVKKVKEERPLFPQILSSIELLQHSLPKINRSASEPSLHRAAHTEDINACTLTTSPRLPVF
T1 sequence (P63104 whole entry partner): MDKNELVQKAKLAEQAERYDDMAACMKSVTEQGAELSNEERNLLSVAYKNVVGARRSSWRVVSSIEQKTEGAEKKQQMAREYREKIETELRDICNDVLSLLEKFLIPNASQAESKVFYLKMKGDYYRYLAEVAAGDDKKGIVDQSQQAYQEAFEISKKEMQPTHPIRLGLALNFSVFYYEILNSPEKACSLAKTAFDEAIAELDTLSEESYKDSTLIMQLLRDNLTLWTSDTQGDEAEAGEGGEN
In short: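 AlphaScreen read-out of MEK phosphorylation using an anti-phospho-MEK1/2 antibody after a 1 hour room-temperature reaction at 1 μM ATP. Enzyme: approximately 4 nM Sf9-expressed full-length activated C-Raf (Y340E/Y341E, with 14-3-3ζ) on approximately 10 nM biotinylated K97R MEK1, after 60 min compound preincubation. IC50 by non-linear fit.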

[2] = molecular target: T2, b-Raf (V600E) (Homo sapiens, UniProt P15056, V600E); assay: In vitro Raf activity determination (Alpha Screen, biotinylated kinase-dead MEK1 substrate), B-Raf; format: biochemical; settings: b-Raf (V600E) approximately 4 pM; ATP 10 μM; pre-incubation 60 minutes; reaction 3 hours at room temperature
T2 construct: made in house
T2 sequence (P15056 whole entry V600E): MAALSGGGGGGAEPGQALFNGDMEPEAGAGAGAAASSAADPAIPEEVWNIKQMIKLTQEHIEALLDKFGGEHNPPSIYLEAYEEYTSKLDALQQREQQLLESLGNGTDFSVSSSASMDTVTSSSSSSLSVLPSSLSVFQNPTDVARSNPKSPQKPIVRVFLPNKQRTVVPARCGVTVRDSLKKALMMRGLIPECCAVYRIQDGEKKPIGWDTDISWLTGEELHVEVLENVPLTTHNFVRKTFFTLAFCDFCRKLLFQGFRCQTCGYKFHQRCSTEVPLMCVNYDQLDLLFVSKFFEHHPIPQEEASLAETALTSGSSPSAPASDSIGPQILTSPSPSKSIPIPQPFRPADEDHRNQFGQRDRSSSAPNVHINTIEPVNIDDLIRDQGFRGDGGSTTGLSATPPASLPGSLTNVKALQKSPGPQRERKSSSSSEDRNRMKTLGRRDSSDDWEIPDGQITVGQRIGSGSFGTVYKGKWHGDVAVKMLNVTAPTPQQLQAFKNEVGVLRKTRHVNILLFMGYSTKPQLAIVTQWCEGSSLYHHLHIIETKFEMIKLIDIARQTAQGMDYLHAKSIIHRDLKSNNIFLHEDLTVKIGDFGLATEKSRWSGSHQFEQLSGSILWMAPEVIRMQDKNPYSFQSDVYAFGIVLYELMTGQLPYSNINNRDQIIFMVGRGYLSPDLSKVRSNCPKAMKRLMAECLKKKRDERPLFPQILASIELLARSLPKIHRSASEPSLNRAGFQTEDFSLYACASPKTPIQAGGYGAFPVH
In short: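 IC50 from non-linear regression of AlphaScreen phospho-MEK signal (anti-p-MEK1/2 antibody). b-Raf(V600E), about 4 pM, phosphorylated ~10 nM biotinylated K97R MEK1 with 10 μM ATP for 3 h at room temperature after 60 min compound pre-incubation; buffer pH 7.5 Tris, 15 mM MgCl2, 1 mM DTT.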

SMILES	IC50 [1]	IC50 [2]
Cc1ncc(NC(=O)c2cnnc(C(F)(F)F)c2)cc1-c1cnc(N2CC(C)(O)C2)c(C#N)c1 [Example 181, N-(5′-cyano-6′-(3-hydroxy-3-methylazetidin-1-yl)-2-methyl-[3,3′-bypyridin]-5-yl)-6-(trifluoromethyl) pyridazine-4-carboxamide]	16.8 nM	112 nM
Cc1ccc(NC(=O)c2ccnc(C(C)(C)C#N)c2)cc1-c1cc(C#N)cnc1N [Example 12, N-(3-(2-amino-5-cyanopyridin-3-yl)-4-methylphenyl)-2-(2-cyanopropan-2-yl)isonicotinamide]	1.81 nM	27.8 nM
Cc1ccc(NC(=O)c2ccnc(C(F)(F)F)c2)cc1-c1cnc(N2CC(C)(O)C2)c(C#N)c1 [Example 212, N-(3-(5-cyano-6-(3-hydroxy-3-methylazetidin-1-yl)pyridin-3-yl)-4-methylphenyl)-2-(trifluoromethyl) isonicotinamide]	0.32 nM	1.15 nM
Cc1ccc(NC(=O)c2cc(C(C)(C)O)ccn2)cc1-c1cnc(N2CC(C)(O)C2)c(C#N)c1 [Example 236, N-(3-(5-cyano-6-(3-hydroxy-3-methylazetidin-1-yl)pyridin-3-yl)-4-methylphenyl)-4-(2-hydroxypropan-2-yl)picolinamide]	1.55 nM	5.78 nM
Cc1ncc(NC(=O)c2cc(C(F)(F)F)ccn2)cc1-c1cnc(NC2CCOCC2)c(C#N)c1 [Example 227, N-(5′-cyano-2-methyl-6′-((tetrahydro-2H-pyran-4-yl)amino)-[3,3′-bipyridin]-5-yl)-4-(trifluoromethyl) picolinamide]	0.796 nM	3 nM
Cc1ncc(NC(=O)c2cccc(S(C)(=O)=O)c2)cc1-c1cnc(N(C)C)c(C#N)c1 [Example 270, N-(5′-cyano-6′-(dimethylamino)-2-methyl-[3,3′-bipyridin]-5-yl)-3-(methylsulfonyl) benzamade]	0.49 nM	5.41 nM
Cc1ccc(NC(=O)c2cc(C(C)(C)N)cc(C(F)(F)F)c2)cc1-c1cnc(-c2cnn(C)c2)c(C#N)c1 [Example 273, 3-(2-aminopropan-2-yl)-N-(3-(5-cyano-6-(1-methyl-1H-pyrazol-4-yl)pyridin-3-yl)-4-methylphenyl)-5-(trifluoromethyl) benzamide]	1 nM	4 nM
Cc1ccc(NC(=O)c2cc(C(F)(F)F)ccn2)cc1-c1cnc(N2CCOCC2)c(C#N)c1 [Example 222, N-(3-(5-cyano-6-morpholinopyridin-3-yl)-4-methylphenyl)-4-(trifluoromethyl) picolinamide]	0.219 nM	1 nM
Cc1ncc(NC(=O)c2ccnc(C(F)(F)F)c2)cc1-c1cnc(-c2cccnc2)c(C#N)c1 [Example 104, N-(3′-cyano-2″- methyl-[3,2′:5′,3″- terpyridin]-5″-yl)-2-(trifluoromethyl) isonicotinamide]	0.594 nM	3.16 nM
Cc1ncc(NC(=O)c2ccnc(C3(C#N)CC3)c2)cc1-c1cnc(N2CC(C)(O)C2)c(C#N)c1 [Example 189, N-(5′-cyano-6′-(3-hydroxy-3-methylazetidin-1-yl)-2-methyl-[3,3′-bipyridin]-5-yl)-2-(1-cyanocyclopropyl) isonicotinamide]	0.39 nM	3.41 nM
Cc1ncc(NC(=O)c2cccc(C(F)(F)F)c2)cc1-c1cnc(N2CC(O)C2)c(C#N)c1 [Example 67, N-(5′-cyano-6′-(3-hydroxyazetidin-1-yl)-2-methyl-[3,3′-bipyridin]-5-yl)-3-(trifluoromethyl) benzamide]	0.225 nM	1.24 nM

Further lines, results first:

IC50 [1]	IC50 [2]	SMILES
1.95 nM	11.1 nM	Cc1ccc(NC(=O)c2ccnc(C(C)(C)C#N)c2)cc1-c1cncc(C#N)c1 [Example 35, 2-(2-cyanopropan-2-yl)-N-(3-(5-cyanopyridin-3-yl)-4-methylphenyl) isonicotinamide]
7.28 nM	59.7 nM	CCn1cc(C(=O)Nc2ccc(C)c(-c3cnc(N(C)C)c(C#N)c3)c2)c(C)n1 [Example 251, N-(3-(5-cyano-6-(dimethylamino)pyridin-3-yl)-4-methylphenyl)-1-ethyl-3-methyl-1H-pyrazole-4-carboxamide]
5.97 nM	36 nM	COCCNc1ncc(-c2cc(NC(=O)c3ccnc(C(C)(C)O)c3)cnc2C)cc1C#N [Example 210, N-(5′-cyano-6′-((2-methoxyethyl)amino)-2-methyl-[3,3′-bipyridin]-5-yl)-2-(2-hydroxypropan-2-yl)isonicotinamide]
6.55 nM	60.8 nM	Cc1ccc(NC(=O)c2ccnc(C(C)(C)C#N)c2)cc1-c1cnc(N)c(C#N)c1C [Example 9, N-(3-(6-amino-5-cyano-4-methylpyridin-3-yl)-4-methylphenyl)-2-(2-cyanopropan-2-yl)isonicotinamide]
12.6 nM	76 nM	Cc1ncc(NC(=O)c2cnnc(C(F)(F)F)c2)cc1-c1cnc(C2CCOCC2)c(C#N)c1 [Example 144, N-(5′-cyano-2-methyl-6′-(tetrahydro-2H-pyran-4-yl)-[3,3′-bipyridin]-5-yl)-6-(trifluoromethyl) pyridazine-4-carboxamide]
0.367 nM	1.08 nM	Cc1ccc(NC(=O)c2ccnc(C(C)(C)C#N)c2)cc1-c1cnc(NC2CCOCC2)c(C#N)c1 [Example 60, N-(3-(5-cyano-6-((tetrahydro-2H-pyran-4-yl)amino)pyridin-3-yl)-4-methylphenyl)-2-(2-cyanopropan-2-yl)isonicotinamide]
0.356 nM	1.09 nM	Cc1ncc(NC(=O)c2cccc(C(F)F)c2)cc1-c1cnc(NC2CCOCC2)c(C#N)c1 [Example 172, N-(5′-cyano-2-methyl-6′-((tetrahydro-2H-pyran-4-yl)amino)-[3,3′-bipyridin]-5-yl)-3-(difluoromethyl) benzamide]
0.49 nM	2 nM	Cc1ccc(NC(=O)c2cc(C(F)(F)F)ccn2)cc1-c1cnc(N2CC(C)(O)C2)c(C#N)c1 [Example 224, N-(3-(5-cyano-6-(3-hydroxy-3-methylazetidin-1-yl)pyridin-3-yl)-4-methylphenyl)-4-(trifluoromethyl) picolinamide]
2.53 nM	9.28 nM	Cc1ncc(NC(=O)c2ccnc(C(C)(C)C#N)c2)cc1-c1cnc(NC2CCOC2)c(C#N)c1 (stereo not shown) [Example 77, N-(5′-cyano-2-methyl-6′-((tetrahydrofuran-3-yl)amino)-[3,3′-bipyridin]-5-yl)-2-(2-cyanopropan-2-yl)isonicotinamide]
0.171 nM	1.31 nM	Cc1ccc(NC(=O)c2ccnc(C3CC3)c2)cc1-c1cnc(N2CC(C)(O)C2)c(C#N)c1 [Example 219, N-(3-(5-cyano-6-(3-hydroxy-3-methylazetidin-1-yl)pyridin-3-yl)-4-methylphenyl)-2-cyclopropyl-isonicotinamide]
0.216 nM	1.53 nM	Cc1ccc(NC(=O)c2ccnc(C(C)(C)C#N)c2)cc1-c1cnc(N(C)C)c(C#N)c1 [Example 16, N-(3-(5-cyano-6-(dimethylamino)pyridin-3-yl)-4-methylphenyl)-2-(2-cyanopropan-2-yl)isonicotinamide]
0.117 nM	0.542 nM	Cc1ncc(NC(=O)c2cccc(C(F)F)c2)cc1-c1cnc(N2CCOCC2)c(C#N)c1 [Example 132, N-(5′-cyano-2-methyl-6′-morpholino-[3,3′-bipyridin]-5-yl)-3-(difluoromethyl) benzamide]

From patent US10392404B2, “Compounds and compositions as kinase inhibitors” (NOVARTIS AG, priority 2014, dated 2019)
